Test results published in US20230381210A1, “COMPOSITION FOR PREVENTION, AMELIORATION, OR TREATMENT OF HYPERSENSITIVITY IMMUNE DISEASE CONTAINING GALACTOSE” (Quorum Bio Co., Ltd., priority 2020, published 2023).

Key:
Format in all cases: in vivo, BALB/c mice
[1] = test system: DNCB-induced atopic dermatitis mouse model; assay: Visual confirmation of skin lesions in DNCB-induced atopic dermatitis mouse model; details: oral 100 or 200 mg/kg daily (G5, G6) vs negative control (G3, PBS); FIG. 2, n=2 per group
Procedure: An animal experiment in the following example was performed in accordance with the regulations set forth by Chonnam National University IACUC in an environment maintained at 50±5% humidity and 24˜26° C. temperature. 7-week-old male BALB/c mice (Damool Science Co., Ltd.) bred as a test animal were used, and after being acclimatized in a laboratory environment for one week while supplying enough feed and water, they were used in the experiment. Non-allergenic, dust-free, non-toxic, absorbent and pathogen-free bedding was used, and the cage was changed once a week to maintain a clean environment, and water was freely supplied with a water bottle. Galactose was pre-administered for 2 weeks from the period when the prepared mice were 8-week-old. Pre-administration was performed by oral administration once a day for 2 weeks, and the dose of galactose was 100 mg/kg or 200 mg/kg, respectively. As a control group, mice administered (orally) with PBS for the same period were prepared. After 2 weeks of pre-administration, the hairs on the mouse head and back of the mice were removed using a clipper and depilatory cream. […] On the day 16 after the first DNCB application (just before necropsy), ear thickness and clinical symptoms of the mice were measured. […]

[2] = test system: DNCB-induced atopic dermatitis mouse model; assay: Total IgE in serum by ELISA in DNCB-induced atopic dermatitis mouse model; details: oral 200 mg/kg daily (G6) vs negative control (G3); day 16; FIG. 7
Procedure: An animal experiment in the following example was performed in accordance with the regulations set forth by Chonnam National University IACUC in an environment maintained at 50±5% humidity and 24˜26° C. temperature. 7-week-old male BALB/c mice (Damool Science Co., Ltd.) bred as a test animal were used, and after being acclimatized in a laboratory environment for one week while supplying enough feed and water, they were used in the experiment. Non-allergenic, dust-free, non-toxic, absorbent and pathogen-free bedding was used, and the cage was changed once a week to maintain a clean environment, and water was freely supplied with a water bottle. […] On the day 16 after the first DNCB application (just before necropsy), ear thickness and clinical symptoms of the mice were measured. At autopsy (16 days after first DNCB application), whole blood was collected, and then serum was separated and the IgE level in serum was measured by ELISA. As total IgE in serum was increased, when DNCB was treated to skin in the DNCB-induced atopic dermatitis mouse model, in the present example, by collecting blood right before autopsy of the mice prepared in Reference example 1 and then isolating serum and evaluating the total amount of IgE (ug/ml) in serum through ELISA method, a protective effect of atopic dermatitis was indirectly evaluated.

[3] = test system: DNCB-induced atopic dermatitis mouse model; assay: Clinical scoring (rubefaction, keratin formation, crust formation) in DNCB-induced atopic dermatitis mouse model; details: oral 100 or 200 mg/kg daily (G5, G6) vs negative control (G3); FIG. 4
Procedure: An animal experiment in the following example was performed in accordance with the regulations set forth by Chonnam National University IACUC in an environment maintained at 50±5% humidity and 24˜26° C. temperature. 7-week-old male BALB/c mice (Damool Science Co., Ltd.) bred as a test animal were used, and after being acclimatized in a laboratory environment for one week while supplying enough feed and water, they were used in the experiment. Non-allergenic, dust-free, non-toxic, absorbent and pathogen-free bedding was used, and the cage was changed once a week to maintain a clean environment, and water was freely supplied with a water bottle. […] On the day 16 after the first DNCB application (just before necropsy), ear thickness and clinical symptoms of the mice were measured. The mice prepared in Reference example 1 were evaluated for clinical symptoms (rubefaction, keratin formation (dryness degree), crust formation), and ear thickness was measured and then recorded three times a week (Monday, Wednesday, Friday). Ear thickness was measured three times a week using Caliper (R12-1A, Ozaki, Tokyo, Japan). […] For the mice prepared in Reference example 1, the clinical symptoms of the three items (rubefaction, keratin formation (dryness), crust formation) were scored on the basis of the following: 0 point; none, 1 point; mild, 2 points; moderate, 3 points; severe.

[4] = test system: DNCB-induced atopic dermatitis mouse model; assay: Spleen and lymph node weight in DNCB-induced atopic dermatitis mouse model; details: oral 100 or 200 mg/kg daily (G5, G6) vs negative control (G3)
Procedure: An animal experiment in the following example was performed in accordance with the regulations set forth by Chonnam National University IACUC in an environment maintained at 50±5% humidity and 24˜26° C. temperature. 7-week-old male BALB/c mice (Damool Science Co., Ltd.) bred as a test animal were used, and after being acclimatized in a laboratory environment for one week while supplying enough feed and water, they were used in the experiment. Non-allergenic, dust-free, non-toxic, absorbent and pathogen-free bedding was used, and the cage was changed once a week to maintain a clean environment, and water was freely supplied with a water bottle. Galactose was pre-administered for 2 weeks from the period when the prepared mice were 8-week-old. Pre-administration was performed by oral administration once a day for 2 weeks, and the dose of galactose was 100 mg/kg or 200 mg/kg, respectively. As a control group, mice administered (orally) with PBS for the same period were prepared. […] On the day 16 after the first DNCB application (just before necropsy), ear thickness and clinical symptoms of the mice were measured. […] In the present example, by measuring the weight of the spleen and armpit lymph nodes right before autopsy of the mice prepared in Reference example 1, a protective effect of atopic dermatitis was indirectly evaluated.

[5] = test system: DNCB-induced atopic dermatitis mouse model; assay: Ear thickness measurement in DNCB-induced atopic dermatitis mouse model; details: oral 100 or 200 mg/kg daily (G5, G6); FIG. 3
Procedure: An animal experiment in the following example was performed in accordance with the regulations set forth by Chonnam National University IACUC in an environment maintained at 50±5% humidity and 24˜26° C. temperature. 7-week-old male BALB/c mice (Damool Science Co., Ltd.) bred as a test animal were used, and after being acclimatized in a laboratory environment for one week while supplying enough feed and water, they were used in the experiment. Non-allergenic, dust-free, non-toxic, absorbent and pathogen-free bedding was used, and the cage was changed once a week to maintain a clean environment, and water was freely supplied with a water bottle. Galactose was pre-administered for 2 weeks from the period when the prepared mice were 8-week-old. Pre-administration was performed by oral administration once a day for 2 weeks, and the dose of galactose was 100 mg/kg or 200 mg/kg, respectively. […] On the day 16 after the first DNCB application (just before necropsy), ear thickness and clinical symptoms of the mice were measured. The mice prepared in Reference example 1 were evaluated for clinical symptoms (rubefaction, keratin formation (dryness degree), crust formation), and ear thickness was measured and then recorded three times a week (Monday, Wednesday, Friday). Ear thickness was measured three times a week using Caliper (R12-1A, Ozaki, Tokyo, Japan). […]

Structure (SMILES): O=C[C@H](O)[C@@H](O)[C@@H](O)[C@H](O)CO [galactose]
- degree of crust formation [1]: reduced
- degree of skin rubefaction [1]: suppressed
- total amount of IgE in serum [2]: significantly reduced
- score of clinical symptoms (sum of rubefaction, keratin formation, crust formation scores) [3]: significantly reduced
- weight of spleen ([4]; FIG. 5): generally reduced
- weight of lymph nodes (armpit) ([4]; FIG. 6): generally reduced
- ear thickness [5]: significantly reduced
